Test results published in patent US7919468B2, “Compounds useful as modulators of the proteasome activity” (Centre National de la Recherche Scientifique (C.N.R.S.), priority 2005, dated 2011).
pIC50, pKi: −log10 of the molar value. Peptide text beside a SMILES is read from it. * marks the point of attachment. Boc = CC(C)(C)OC(=O)*; NHBn = c1ccc(CN*)cc1; NHPh = c1ccc(N*)cc1; Bn = c1ccc(C*)cc1

Experiments:
Type in all cases: biochemical
[1] = test system: T1, rabbit 20S proteasome, chymotrypsin-like (CT-L) activity; assay: Rabbit 20S proteasome fluorescent assay, chymotrypsin-like activity (Suc-LLVY-amc); details: [Compound]=100 μM, pH 7.5, 30° C.
T1 construct: other: [Compound]=100 μM, pH 7.5, 30° C
Description: (§1) 20S proteasome from rabbit reticulocyte was from commercial source (Alexis Biochemicals)
(§2) Semi-automatic fluorescent assays using Suc-LLVY-amc (SEQ ID NO: 2) for chymotrypsin-like activity, Z-LLE-SNA for post-acid activity and Boc-LLR-amc for trypsin-like activity of proteasome were performed at pH 7.5 and 30° C. using BMG Fluostar microplate reader (Suc=succinyl; amc=7-amino-4-methylcoumarin; Z=benzyloxycarbonyl; NA=2-naphtylamine; Boc=tert-butoxycarbonyl). The buffers were: 20 mM Tris, 1 mM DTT, 10% glycerol, 3% (v/v) DMSO (ChT-L and PA activities); 20 mM Tris, 1 mM DTT, 10% glycerol, 3% (v/v) DMSO. Studied compounds were dissolved in DMSO prior dissolution in the buffer. Proteasome was incubated for 15 min at 30° C. in the presence of the studied compound (0.1-100 μM). A control assay in the absence of tested compounds contained DMSO at the same concentration (3%, v/v). The fluorogenic proteasome substrate was then added and the hydrolysis of the appropriate fluorescent substrate was monitored for 1 h (λexc=360, λem=465 nm for amc substrates and λexc=340, λem=405 nm for the βNA substrate). Initial rates determined in control experiments were considered to be 100% of the peptidasic activity; initial rates that were above 100% in the presence of a test compound were considered to be activations, while initial rates below 100% were considered to be inhibitions. For weak inhibitors, the percentage of inhibition at a reference concentration (100 μM) is reported. The results, expressed in % inhibition (or activation factor), were obtained by calculating the average of at least two independent experiments, the variability was less than 10%. The inhibitory activity of more efficient compounds are expressed as IC50 calculated by fitting the experimental data to the equation 1: % Inhibition=100 [I]0/(IC50+[I]0)=100 (v0−vi/v0), or equation 2: % Inhibition=100 [I]0^nH/(IC50^nH+[I]0^nH), nH is the Hill number. v0 and vi are the initial rates in the absence and in the presence of inhibitor. A Dixon plot has been used to determine the inhibition constant Ki for competitive inhibition by compound A215. The reversible character of inhibition or activation was determined by measuring the activity of treated enzyme after the inhibitor molecule has been withdrawn from the reaction medium.
(§3) Inhibition of Rabbit 20 S Proteasome (pH=7.5, 30° C.)
(§4) Activation of Rabbit 20 S Proteasome (pH=7.5, 30° C., [Compound]=100 μM)

[2] = test system: rabbit 20S proteasome, trypsin-like (T-L) activity; assay: Rabbit 20S proteasome fluorescent assay, trypsin-like activity (Boc-LLR-amc); details: [Compound]=100 μM, pH 7.5, 30° C.
Description: as §1, §2, §3, §4

[3] = molecular target: T2, rabbit 20S proteasome, trypsin-like (T-L) activity (Oryctolagus cuniculus, UniProt G1SWK8); assay: as above; details: pH 7.5, 30° C.; for inhibition at 100 µM: 100 μM compound
T2 construct: other: 100 μM compound, pH 7.5, 30° C; other: pH 7.5, 30° C
T2 sequence (G1SWK8 1-271): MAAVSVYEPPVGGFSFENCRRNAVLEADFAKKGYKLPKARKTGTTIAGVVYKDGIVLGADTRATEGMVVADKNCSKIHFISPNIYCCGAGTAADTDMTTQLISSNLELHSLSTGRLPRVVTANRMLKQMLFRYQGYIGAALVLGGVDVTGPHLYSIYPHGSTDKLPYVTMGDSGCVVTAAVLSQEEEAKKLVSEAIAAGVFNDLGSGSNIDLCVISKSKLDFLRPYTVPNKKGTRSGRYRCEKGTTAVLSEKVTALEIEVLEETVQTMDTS
Description: as §1, §2, §3, §4

[4] = molecular target: T3, rabbit 20S proteasome, post-acid (PA) activity (Oryctolagus cuniculus, UniProt A0A5F9DQW2); assay: Rabbit 20S proteasome fluorescent assay, post-acid activity (Z-LLE-βNA); details: pH 7.5, 30° C.; for PA % inhibition (at 100 μM): 100 μM compound
T3 construct: other: 100 μM compound, pH 7.5, 30° C; other: pH 7.5, 30° C
T3 sequence (A0A5F9DQW2 1-212): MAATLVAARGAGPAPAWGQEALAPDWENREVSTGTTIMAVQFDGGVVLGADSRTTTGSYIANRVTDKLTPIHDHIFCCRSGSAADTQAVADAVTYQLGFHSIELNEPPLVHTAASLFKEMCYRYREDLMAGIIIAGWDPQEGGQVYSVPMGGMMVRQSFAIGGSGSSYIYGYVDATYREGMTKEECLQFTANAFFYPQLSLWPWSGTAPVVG
Description: as §1, §2, §3, §4

[5] = molecular target: T4, rabbit 20S proteasome, chymotrypsin-like (CT-L) activity (Oryctolagus cuniculus, UniProt G1T4Q9); assay: Rabbit 20S proteasome fluorescent assay, chymotrypsin-like activity (Suc-LLVY-amc); details: pH 7.5, 30° C.; for inhibition at 100 µM: 100 μM compound
T4 construct: other: 100 μM compound, pH 7.5, 30° C; other: pH 7.5, 30° C; CT-L Ki
T4 sequence (G1T4Q9 1-263): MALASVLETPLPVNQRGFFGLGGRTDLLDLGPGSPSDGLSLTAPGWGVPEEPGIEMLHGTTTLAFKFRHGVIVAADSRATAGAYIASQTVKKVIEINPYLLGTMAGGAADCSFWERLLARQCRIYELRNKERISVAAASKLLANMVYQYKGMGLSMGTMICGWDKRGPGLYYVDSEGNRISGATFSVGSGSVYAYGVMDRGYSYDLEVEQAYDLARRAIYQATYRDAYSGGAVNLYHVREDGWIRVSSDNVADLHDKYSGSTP
Description: as §1, §2, §3, §4

Compound | CT-L Activation factor [1] | T-L Activation factor [2] | other results
CC(C)C[C@H](NC(=O)[C@H](Cc1ccc(OCc2ccccc2)cc1)NC(=O)OC(C)(C)C)C(=O)N[C@@H](Cc1c[nH]c2ccccc12)C(=O)Nc1ccccc1 [A424P, N-Boc-Tyr(Bn)-Leu-Trp-NHPh] (Boc-Tyr(Bn)-Leu-Trp-NHPh) | 1.2 | 1.9 | 
CC(C)C[C@H](NC(=O)[C@H](Cc1ccc(OCc2ccccc2)cc1)NC(=O)OC(C)(C)C)C(=O)N[C@@H](Cc1c[nH]c2ccccc12)C(=O)NCc1ccccc1 [A414P, N-Boc-Tyr(Bn)-Leu-Trp-NHCH2Ph] (Boc-Tyr(Bn)-Leu-Trp-NHBn) | 1.3 | 1.9 | 
CC(C)(C)OC(=O)NCCCC[C@H](NC(=O)[C@H](Cc1ccc(OCc2ccccc2)cc1)NC(=O)OC(C)(C)C)C(=O)N[C@@H](Cc1c[nH]c2ccccc12)C(=O)Nc1ccccc1 [SP306P, N-Boc-Tyr(Bn)-Lys(Boc)-Trp-NHPh] (Boc-Tyr(Bn)-Lys(Boc)-Trp-NHPh) | 1.2 | 1.6 | 
CC(C)(C)OC(=O)N[C@@H](Cc1ccc(OCc2ccccc2)cc1)C(=O)N[C@@H](CC(N)=O)C(=O)N[C@@H](Cc1c[nH]c2ccccc12)C(=O)Nc1ccccc1 [SP314C2, N-Boc-Tyr(Bn)-Asn-Trp-NHPh] (Boc-Tyr(Bn)-Asn-Trp-NHPh) | 1.5 | 2.5 | 
CNC(=O)[C@H](Cc1c[nH]c2c(-c3cc(C[C@H](NC(=O)OC(C)(C)C)C(=O)N[C@@H](CC(C)C)C(=O)OC)ccc3OCc3ccccc3)cccc12)NC(=O)OCc1ccccc1 [SP226F1] |  |  | inhibition at 100 µM [3]: 23%
CC(C)(C)OC(=O)N[C@@H](Cc1ccc(OCc2ccccc2)cc1)C(=O)NCC(=O)N[C@@H](Cc1c[nH]c2ccccc12)C(=O)NCc1ccccc1 [PSV11R, N-Boc-Tyr(Bn)-Gly-Trp-NHCH2Ph] (Boc-Tyr(Bn)-Gly-Trp-NHBn) | 1.2 | 1.7 | PA % inhibition (at 100 μM) [4]: 59%
C[C@H](NC(=O)[C@H](Cc1ccc(OCc2ccccc2)cc1)NC(=O)OC(C)(C)C)C(=O)N[C@@H](Cc1c[nH]c2ccccc12)C(=O)Nc1ccccc1 [SP303r2, N-Boc-Tyr(Bn)-Ala-Trp-NHPh] (Boc-Tyr(Bn)-Ala-Trp-NHPh) | 1.4 | 1.6 | 
CNC(=O)[C@H](Cc1c[nH]c2c(-c3cc(C[C@H](NC(=O)OC(C)(C)C)C(=O)N[C@@H](C)C(=O)OC)ccc3OCc3ccccc3)cccc12)NC(=O)OCc1ccccc1 [SP225F2] |  |  | inhibition at 100 µM [3]: 49%; PA % inhibition (at 100 μM) [4]: 25%
CC(C)(C)OC(=O)N[C@@H](Cc1ccc(O)cc1)C(=O)N[C@@H](CCCNC(=N)N)C(=O)N[C@@H](Cc1c[nH]c2ccccc12)C(=O)Nc1ccc(O)cc1 [SP324, N-Boc-Tyr-Arg-Trp-NH(4-OH)Ph] |  |  | pIC50 [5]: 5.05; pIC50 [3]: 4.68; pIC50 [4]: 5.52
CC(C)(C)OC(=O)N[C@@H](Cc1ccc(OCc2ccccc2)cc1)C(=O)N[C@@H](CCCN(C(=N)NC(=O)OCc1ccccc1)C(=O)OCc1ccccc1)C(=O)N[C@@H](Cc1c[nH]c2ccccc12)C(=O)Nc1ccccc1 [SP310C, N-Boc-Tyr(Bn)-Arg(Z)-2-Trp-NHPh] | 1.7 | 1.6 | 
CC(C)(C)OC(=O)N[C@@H](Cc1ccc(OCc2ccccc2)cc1)C(=O)N[C@@H](CCCN(C(=N)NC(=O)OCc1ccccc1)C(=O)OCc1ccccc1)C(=O)N[C@@H](Cc1c[nH]c2ccccc12)C(=O)NCc1ccccc1 [SP315C2, N-Boc-Tyr(Bn)-Arg(Z)-2-Trp-NHCH2Ph] | 1.2 | 1.9 | 
CC(C)(C)OC(=O)NCCCCNC(=O)[C@H](Cc1c[nH]c2ccccc12)NC(=O)[C@H](CCCCNC(=O)OC(C)(C)C)NC(=O)[C@H](Cc1ccc(OCc2ccccc2)cc1)NC(=O)OC(C)(C)C [SP308P, N-Boc-Tyr(Bn)-Lys(Boc)-Trp-NH(CH2)4NHBoc] | 1.6 | 1.9 | 
C[C@H](NC(=O)[C@H](Cc1ccc(OCc2ccccc2)c(I)c1)NC(=O)OC(C)(C)C)C(=O)N[C@@H](Cc1c[nH]c2c(Br)cccc12)C(=O)O [A215, N-Boc-3-iodo-Tyr(Bn)-Ala-7-bromo-Trp-OH] |  |  | pKi ([5]; Dixon plot, competitive inhibition): 5.70; pIC50 [5]: 5.17; pIC50 [3]: 4.84; pIC50 [4]: 4.95
CC(C)(C)OC(=O)NCCCC[C@H](NC(=O)[C@H](Cc1ccc(OCc2ccccc2)cc1)NC(=O)OC(C)(C)C)C(=O)N[C@@H](Cc1c[nH]c2ccccc12)C(=O)NCc1ccccc1 [SP307P, N-Boc-Tyr(Bn)-Lys(Boc)-Trp-NHCH2Ph] (Boc-Tyr(Bn)-Lys(Boc)-Trp-NHBn) | 1.3 | 1.8 | 
CC(C)(C)OC(=O)N[C@@H](Cc1ccc(O)cc1)C(=O)N[C@@H](CCCNC(=N)N)C(=O)N[C@@H](Cc1c[nH]c2ccccc12)C(=O)NCc1ccccc1 [SP325, N-Boc-Tyr-Arg-Trp-NHCH2Ph] (Boc-Tyr-Arg-Trp-NHBn) |  |  | pIC50 [5]: 5.27; pIC50 [3]: 4.72; pIC50 [4]: 5.60
CC(C)(C)OC(=O)N[C@@H](Cc1ccc(OCc2ccccc2)cc1)C(=O)N[C@@H](CC(N)=O)C(=O)N[C@@H](Cc1c[nH]c2ccccc12)C(=O)NCc1ccccc1 [A416, N-Boc-Tyr(Bn)-Asn-Trp-NHCH2Ph] (Boc-Tyr(Bn)-Asn-Trp-NHBn) |  | 2.2 | inhibition at 100 µM [5]: 28%; PA % inhibition (at 100 μM) [4]: 35%
CC(C)(C)OC(=O)N[C@@H](Cc1ccc(OCc2ccccc2)cc1)C(=O)NCC(=O)N[C@@H](CC1C(=O)Nc2ccccc21)C(=O)NCc1ccccc1 (stereo partly drawn) [NR15, Boc-Tyr(Bn)-Gly-Trp[O]—NHCH2Ph] |  | 12.3 | pIC50 [5]: 5.66; PA % inhibition (at 100 μM) [4]: 87%
COC(=O)[C@H](Cc1c[nH]c2ccccc12)NC(=O)[C@H](C)NC(=O)[C@H](Cc1ccc(OCc2ccccc2)cc1)NC(=O)OC(C)(C)C [NR36, N-Boc-Tyr(Bn)-Ala-Trp-OCH3] (Boc-Tyr(Bn)-Ala-Trp-OMe) |  | 9.8 | inhibition at 100 µM [5]: 34%; PA % inhibition (at 100 μM) [4]: 39%
CC(C)(C)OC(=O)NCCCC[C@H](NC(=O)[C@H](Cc1ccc(OCc2ccccc2)cc1)NC(=O)OC(C)(C)C)C(=O)N[C@@H](Cc1c[nH]c2ccccc12)C(=O)Nc1ccc(O)cc1 [SP319P, N-Boc-Tyr(Bn)-Lys(Boc)-Trp-NH(4-OH)Ph] |  |  | inhibition at 100 µM [5]: 36%; inhibition at 100 µM [3]: 14%
